# Like-named read-outs stand apart in the source and are kept apart here.
# Legend:
# GRP94 [1] = molecular target: T1, GRP94 (Mus musculus, UniProt P08113); assay: Solid phase 96-well plate assay of peptide binding by recombinant GRP94 N-terminal fragments; set-up: His6 tagged N355, comprising of amino acids 34-355 of GRP94; made in house; host or cells: E. coli M15; species or system murine
# grp94-/- ES cells = settings: 1 mM EGTA, FIG. 14E-F
# WT ES cells = settings: 1 mM EGTA, FIG. 14E-F
# GRP94 [2] = molecular target: GRP94 (Homo sapiens, UniProt P14625); assay: GRP94 binding of antigenic peptides (Table 3)
# GRP94 [3] = settings: vast molar excess of peptide, 10 min 50° C. treatment of the protein
# GRP94 [4] = molecular target: T1, GRP94; set-up: a truncated version of GRP94, containing amino acids 1-355; made in house; host or cells: insect cells; settings: full-length GRP94, ref [14]; cited from earlier work
# GRP94 [5] = assay: Solid phase 96-well plate assay of peptide binding by recombinant GRP94 N-terminal fragments; set-up: species or system murine
# [6] = test system: purified mouse dendritic cells; assay: Binding and uptake of GRP94 N-terminal domain by dendritic cells; format: cell-based; settings: bound at 40° C., warmed to 37° C., into endosomal vesicles, FIG. 16
# [7] = test system: radicicol-binding pocket of GRP94; assay: Radicicol binding judged by conformational change on blue native gel electrophoresis; set-up: species or system murine; settings: 300 μM radicicol or DMSO
# tumors = settings: vaccinated mice, Blachere et al. 1997; cited from earlier work
# [8] = antigenic peptides that can be loaded on GRP94
# Chain of GRP94 (Homo sapiens, UniProt P14625) (P14625 22-803, species assumed): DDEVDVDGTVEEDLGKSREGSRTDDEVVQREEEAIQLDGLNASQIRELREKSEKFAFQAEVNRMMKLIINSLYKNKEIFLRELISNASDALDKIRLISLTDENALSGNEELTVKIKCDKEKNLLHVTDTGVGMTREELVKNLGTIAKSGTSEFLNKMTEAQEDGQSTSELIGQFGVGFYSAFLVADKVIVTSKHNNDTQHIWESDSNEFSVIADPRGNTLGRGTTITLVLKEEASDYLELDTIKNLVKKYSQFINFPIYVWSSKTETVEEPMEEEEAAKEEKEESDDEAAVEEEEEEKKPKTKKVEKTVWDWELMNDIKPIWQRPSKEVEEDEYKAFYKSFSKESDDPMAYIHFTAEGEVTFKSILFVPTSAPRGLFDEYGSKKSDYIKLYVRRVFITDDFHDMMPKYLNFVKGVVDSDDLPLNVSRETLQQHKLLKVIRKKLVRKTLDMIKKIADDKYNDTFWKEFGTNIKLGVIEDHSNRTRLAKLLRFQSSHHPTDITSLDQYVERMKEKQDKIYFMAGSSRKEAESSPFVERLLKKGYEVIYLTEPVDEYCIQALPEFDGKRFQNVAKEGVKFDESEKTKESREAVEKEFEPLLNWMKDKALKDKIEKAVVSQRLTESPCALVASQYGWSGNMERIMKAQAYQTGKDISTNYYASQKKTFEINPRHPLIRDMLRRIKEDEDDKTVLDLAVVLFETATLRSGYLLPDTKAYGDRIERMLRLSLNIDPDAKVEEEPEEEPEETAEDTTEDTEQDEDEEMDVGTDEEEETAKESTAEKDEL
molecule,measurement,setting,value
"CCOC(=O)OC(=O)OCC [DEPC, Diethyl pyrocarbonate]",Effect of histidine modification on peptide-binding activity of N34-355,"GRP94 [1]; His6 tag cleaved, peptide A-coated plates, 0.7 μg protein per well, FIG. 6C",abolished
O=C(O)CN(CCOCCOCCN(CC(=O)O)CC(=O)O)CC(=O)O [EGTA],"Growth under Ca++-chelating conditions, -/- cells",grp94-/- ES cells,cannot grow
same,"Growth under Ca++-chelating conditions, WT cells",WT ES cells,can grow for 5 days
NO [Hydroxylamine],Effect of histidine modification on peptide-binding activity of N34-355,GRP94 [1],restored the activity
c1c[nH]cn1 [imidazole],IC50,"GRP94 [1]; N34-355 binding to peptide A, FIG. 6B, read-out: Imidazole concentration that reduced peptide binding by half",6 mM
FLWGPRALV [MAGE 3],GRP94 binding,GRP94 [2]; [8],yes
Glucose Regulated Protein 94 [GRP94],Fraction of the protein that can be loaded with peptide,GRP94 [3],up to 85%
same,Fraction of the protein shown to bind peptides,GRP94 [4],about 1%
KRQIYTDLEMNRLGK [PepA],Binder or non-binder of GRP94 in the peptide binding assay,GRP94 [1],binder
RAHYNIVTF (RAH),GRP94 binding,GRP94 [2],"yes, weak"
RGYVYQGL [VSV8],GRP94 binding,GRP94 [2],yes
same,Binder or non-binder of GRP94 in the peptide binding assay,GRP94 [1],binder
SIINFEKL [OVA 257-264],GRP94 binding,GRP94 [2]; [8],yes
"N34-355: Recombinant GRP94 fragment, amino acids 34-355, N-terminal His6 tag and factor Xa site, expressed in E. coli (protein, left off: small tags and cut ends, Recombinant GRP94 fragment, amino acids 34-355, N-terminal His6 tag and factor Xa site, expressed in E. coli) PYNGTGSAIQLDGLNASQIRELREKSEKFAFQAEVNRMMKLIINSLYKNKEIFLRELISNASDALDKIRLISLTDENALSGNEELTVKIKCDKEKNLLHVTDTGVGMTREELVKNLGTIAKSGTSEFLNKMTEAQEDGQSTSELIGQFGVGFYSAFLVADKVIVTSKHNNDTQHIWESDSNEFSVIADPRGNTLGRGTTITLVLKEEASDYLELDTIKNLVKKYSQFINFPIYVWSSKTETVEEPMEEEEAAKEEKEESDDEAAVEEEEEEKKPKTKKVEKTVWDWELMNDIKPIWQRPSKEVEEDEYKAFYKSFSKESDDPMAYIHFT",Inhibition of peptide binding activity by pre-treatment with radicicol,GRP94 [5],inhibited significantly
same,Uptake by dendritic cells,[6],internalized
same,Binding of VSV8 peptide (dose binding curve),"GRP94 [1]; VSV8-coated plates, compared with N1-355, FIG. 1B",binding curve very similar to that of N1-355
"H125D: N34-355 with His125 mutated to Asp (protein, UniProt P14625 34-355, looked up, variant H125D, fragment 34-355 His6 tag, factor Xa site, N34-355 with His125 mutated to Asp) DLGKSREGSRTDDEVVQREEEAIQLDGLNASQIRELREKSEKFAFQAEVNRMMKLIINSLYKNKEIFLRELISNASDALDKIRLISLTDENALSGNEELTVKIKCDKEKNLLDVTDTGVGMTREELVKNLGTIAKSGTSEFLNKMTEAQEDGQSTSELIGQFGVGFYSAFLVADKVIVTSKHNNDTQHIWESDSNEFSVIADPRGNTLGRGTTITLVLKEEASDYLELDTIKNLVKKYSQFINFPIYVWSSKTETVEEPMEEEEAAKEEKEESDDEAAVEEEEEEKKPKTKKVEKTVWDWELMNDIKPIWQRPSKEVEEDEY",Peptide binding activity,"GRP94 [5]; peptide A-coated plates, 0.7 or 2 μg protein, FIG. 7A",almost no peptide binding activity
same,"Radicicol binding (conformational change, native gel mobility, 9G10 epitope)",[7],retained its ability to bind the inhibitor radicicol
"GRP94 bound to tumor peptides: GRP94 complexed with tumor peptides, used to vaccinate mice (Srivastava's lab) (protein, UniProt P08113 22-802, looked up, complexed with tumor peptides) Endoplasmin: DDEVDVDGTVEEDLGKSREGSRTDDEVVQREEEAIQLDGLNASQIRELREKSEKFAFQAEVNRMMKLIINSLYKNKEIFLRELISNASDALDKIRLISLTDENALAGNEELTVKIKCDKEKNLLHVTDTGVGMTREELVKNLGTIAKSGTSEFLNKMTEAQEDGQSTSELIGQFGVGFYSAFLVADKVIVTSKHNNDTQHIWESDSNEFSVIADPRGNTLGRGTTITLVLKEEASDYLELDTIKNLVRKYSQFINFPIYVWSSKTETVEEPLEEDEAAKEEKEESDDEAAVEEEEEEKKPKTKKVEKTVWDWELMNDIKPIWQRPSKEVEEDEYKAFYKSFSKESDDPMAYIHFTAEGEVTFKSILFVPTSAPRGLFDEYGSKKSDYIKLYVRRVFITDDFHDMMPKYLNFVKGVVDSDDLPLNVSRETLQQHKLLKVIRKKLVRKTLDMIKKIADEKYNDTFWKEFGTNIKLGVIEDHSNRTRLAKLLRFQSSHHSTDITSLDQYVERMKEKQDKIYFMAGSSRKEAESSPFVERLLKKGYEVIYLTEPVDEYCIQALPEFDGKRFQNVAKEGVKFDESEKTKESREATEKEFEPLLNWMKDKALKDKIEKAVVSQRLTESPCALVASQYGWSGNMERIMKAQAYQTGKDISTNYYASQKKTFEINPRHPLIRDMLRRIKEDEDDKTVMDLAVVLFETATLRSGYLLPDTKAYGDRIERMLRLSLNIDPEAQVEEEPEEEPEDTSEDAEDSEQDEGEEMDAGTEEEEEETEKESTEKDEL",Improvement of T cell responses on tumor challenge compared to control mice,tumors,10-200 fold

# Source: US7589174B2, “GRP94-based compositions and methods of use thereof” (The Children's Hospital of Philadelphia, priority 2003, dated 2009)
